Experiment: Monitoring of the plasma concentration of the main oligosaccharides of a VLMWH in human volunteers (plasma filtration + anion-exchange HPLC)
Format: in vivo
Procedure: A plasma sample with a volume of between 100 and 1000 μl is withdrawn and, if appropriate, the internal standard is added to the latter.
After homogenization, the resulting solution is introduced into a 30 kD Ultrafree 05 ultrafiltration cartridge (Millipore) rinsed beforehand with 250 μl of water by centrifuging at 10 000 rev/min for 5 minutes. The plasma is introduced into the upper part of the cartridge once or twice, if the amounts to be filtered are greater than 500 μl.
The cartridge is centrifuged at 10 000 rev/min for between 1 and 2 hours and then the filtrate is withdrawn. If appropriate, the second part of the plasma to be filtered is introduced into the upper part of the cartridge and the latter is again centrifuged. The exact amount of plasma introduced will have been weighed. The cartridge is centrifuged until the protein residue in the upper part of the cartridge represents no more than approximately 10% of the initial part.
The filtrate is withdrawn and 210 μl of 3M KCl per ml of plasma filtered are added to the concentrate.
After homogenization, the cartridge is centrifuged at 10 000 rev/min for between 1 and 4 hours. The cartridge is centrifuged until the protein residue in the upper part of the cartridge represents no more than approximately 10% of the initial part.
The second filtrate is withdrawn and 210 μl of 3M KCl per ml of plasma filtered are added a second time to the concentrate.
The third filtrate is withdrawn and 250 μl of water per ml of plasma filtered are added.
The filtrates are combined and diluted 5 fold in water, and the whole is injected directly in anion-exchange HPLC. Immediately before injection, the pH of the injected solution is adjusted to 3 by addition of 1N HCl.
The filtered plasma is analyzed by anion-exchange HPLC.
The columns used are IonPAc As11 columns (Dionex), with a length of 25 cm and an internal diameter of 2 mm. The detector used is a UV spectrophotometer equipped with an array of diodes.
The whole of the […] is injected after adjustment of the pH to 3 by addition of N HCl. The flow rate chosen is 0.22 ml/min; the column temperature is 40° C.
Elution is carried out in gradient mode. The two solutions used are:
Solvent A: NaH2PO4 2.5 mM, brought to pH 2.9 by addition of H3PO4
Solvent B: NaClO4 1N, NaH2PO4 2.5 mM, brought to pH 3.0 by addition of H3PO4
The elution gradient is as follows:
T=0 min: % B=3; T=40 min: % B=60; T=60 min: % B=80
A VLMWH with an average molecular weight of 2500 Da is administered at the target dose of 1.4 mg/kg to human volunteers. Blood samples are withdrawn at the times 0, 0.25 h, 0.5 h, 0.75 h, 1 h, 1.25 h, 1.5 h, 2 h, 2.5 h, 3 h, 3.5 h, 4 h, 4.5 h, 5 h, 6 h, 7 h, 8 h, 9 h, 10 h, 12 h, 14 h and 24 h after administration.
As the VLMWH used is a complex mixture of oligosaccharides, the study was limited to certain components chosen from this mixture.

[1] = 0 h after administration of VLMWH (2500 Da) 1.4 mg/kg
[2] = 0.25 h after administration of VLMWH (2500 Da) 1.4 mg/kg
[3] = 0.5 h after administration of VLMWH (2500 Da) 1.4 mg/kg
[4] = 0.75 h after administration of VLMWH (2500 Da) 1.4 mg/kg
[5] = 1 h after administration of VLMWH (2500 Da) 1.4 mg/kg
[6] = 1.25 h after administration of VLMWH (2500 Da) 1.4 mg/kg
[7] = 1.5 h after administration of VLMWH (2500 Da) 1.4 mg/kg
[8] = 2 h after administration of VLMWH (2500 Da) 1.4 mg/kg
[9] = 2.5 h after administration of VLMWH (2500 Da) 1.4 mg/kg
[10] = 3 h after administration of VLMWH (2500 Da) 1.4 mg/kg
[11] = 3.5 h after administration of VLMWH (2500 Da) 1.4 mg/kg
[12] = 4 h after administration of VLMWH (2500 Da) 1.4 mg/kg
[13] = 4.5 h after administration of VLMWH (2500 Da) 1.4 mg/kg
[14] = 5 h after administration of VLMWH (2500 Da) 1.4 mg/kg
[15] = 6 h after administration of VLMWH (2500 Da) 1.4 mg/kg
[16] = 7 h after administration of VLMWH (2500 Da) 1.4 mg/kg
[17] = 8 h after administration of VLMWH (2500 Da) 1.4 mg/kg
[18] = 9 h after administration of VLMWH (2500 Da) 1.4 mg/kg
[19] = 10 h after administration of VLMWH (2500 Da) 1.4 mg/kg
[20] = 12 h after administration of VLMWH (2500 Da) 1.4 mg/kg
[21] = 14 h after administration of VLMWH (2500 Da) 1.4 mg/kg

| SMILES | plasma concentration [1] [nM] | plasma concentration [2] [nM] | plasma concentration [3] [nM] | plasma concentration [4] [nM] | plasma concentration [5] [nM] | plasma concentration [6] [nM] | plasma concentration [7] [nM] | plasma concentration [8] [nM] | plasma concentration [9] [nM] | plasma concentration [10] [nM] | plasma concentration [11] [nM] | plasma concentration [12] [nM] | plasma concentration [13] [nM] | plasma concentration [14] [nM] | plasma concentration [15] [nM] | plasma concentration [16] [nM] | plasma concentration [17] [nM] | plasma concentration [18] [nM] | plasma concentration [19] [nM] | plasma concentration [20] [nM] | also measured |
| --- | --- | --- | --- | --- | --- | --- | --- | --- | --- | --- | --- | --- | --- | --- | --- | --- | --- | --- | --- | --- | --- |
| CC(=O)NC1C(OC2C(C(=O)O)OC(OC3C(COS(=O)(=O)O)OC(OC4C(C(=O)O)OC(OC5C(COS(=O)(=O)O)OC(O)C(NS(=O)(=O)O)C5O)C(OS(=O)(=O)O)C4O)C(NS(=O)(=O)O)C3OS(=O)(=O)O)C(O)C2O)OC(COS(=O)(=O)O)C(OC2OC(C(=O)O)=CC(O)C2O)C1O (stereo not shown) [ΔIIaIIsIs] | 0 | 50 | 100 | 100 | 100 | 120 | 110 | 110 | 90 | 80 | 90 | 100 | 100 | 90 | 80 | 100 | 70 | 70 | 70 | 80 | plasma concentration [21]: 70 nM; plasma concentration (24 h after administration of VLMWH (2500 Da) 1.4 mg/kg): 50 nM |
| O=C(O)C1=CC(O)C(OS(=O)(=O)O)C(OC2C(COS(=O)(=O)O)OC(OC3C(C(=O)O)OC(OC4C(COS(=O)(=O)O)OC(OC5C(C(=O)O)OC(OC6C(COS(=O)(=O)O)OC(O)C(NS(=O)(=O)O)C6O)C(OS(=O)(=O)O)C5O)C(NS(=O)(=O)O)C4O)C(OS(=O)(=O)O)C3O)C(NS(=O)(=O)O)C2O)O1 (stereo not shown) [ΔIsIsIs] | 0 | 20 | 40 | 30 | 40 | 40 | 30 | 30 | 20 | 20 | 20 | 10 | 10 | 10 | 10 | 10 | 0 | 0 | 0 | 0 | plasma concentration [21]: 0 nM |
| O=C(O)C1=CC(O)C(OS(=O)(=O)O)C(OC2C(COS(=O)(=O)O)OC(OC3C(C(=O)O)OC(OC4C(COS(=O)(=O)O)OC(O)C(NS(=O)(=O)O)C4O)C(OS(=O)(=O)O)C3O)C(NS(=O)(=O)O)C2O)O1 (stereo not shown) [ΔIsIs] | 0 | 160 | 240 | 210 | 200 | 190 | 190 | 150 | 100 | 90 | 70 | 70 | 60 | 50 | 40 | 30 | 20 | 10 | 10 | 10 | plasma concentration [21]: 0 nM |
| O=C(O)C1=CC(O)C(OS(=O)(=O)O)C(OC2C(COS(=O)(=O)O)OC(O)C(NS(=O)(=O)O)C2O)O1 (stereo not shown) [ΔIs] | 0 | 240 | 300 | 260 | 230 | 200 | 190 | 160 | 110 | 100 | 80 | 70 | 60 | 40 | 30 | 30 | 20 | 10 | 10 | 0 | plasma concentration [21]: 0 nM |
